Assay results from the NIST ThermoML archive (doi:10.1021/acs.jced.7b00466).
Numbers after ± are expanded uncertainties.

Settings: for surface tension liquid-gas: Pendant drop shape; for viscosity / speed of sound / mass density: 102 kPa, Liquid; for viscosity: Concentric cylinders viscometry; for speed of sound: Frequency=3 MHz, Sing-around technique in a fixed-path interferometer; for mass density: Vibrating tube method

Cc1ccccc1 [toluene]
surface tension liquid-gas (293 K): 28.6 ± 0.3 mN/m

CCCCCCCCCCCC [dodecane]
viscosity (293.15 K): 1.47 ± 0.02 mPa·s
speed of sound (293.15 K): 1297.3 ± 1.3 m/s
mass density (293.15 K): 748.79 ± 1.5 kg/m3
surface tension liquid-gas (293.6 K): 25 ± 0.3 mN/m
viscosity (303.15 K): 1.23 ± 0.01 mPa·s
speed of sound (303.15 K): 1259.1 ± 1.3 m/s
mass density (303.15 K): 741.54 ± 1.5 kg/m3
viscosity (313.15 K): 1.05 ± 0.01 mPa·s
speed of sound (313.15 K): 1221.5 ± 1.3 m/s
mass density (313.15 K): 734.25 ± 1.5 kg/m3
viscosity (323.15 K): 0.902 ± 0.012 mPa·s
speed of sound (323.15 K): 1184.4 ± 1.3 m/s
mass density (323.15 K): 726.94 ± 1.5 kg/m3
viscosity (333.15 K): 0.786 ± 0.012 mPa·s
speed of sound (333.15 K): 1148 ± 1.3 m/s
mass density (333.15 K): 719.59 ± 1.5 kg/m3
viscosity (343.15 K): 0.69 ± 0.012 mPa·s
mass density (343.15 K): 712.2 ± 4.3 kg/m3

CCCCCCc1ccccc1 [hexylbenzene]
viscosity (293.15 K): 1.68 ± 0.01 mPa·s
speed of sound (293.15 K): 1374.7 ± 1.1 m/s
mass density (293.15 K): 857.69 ± 0.7 kg/m3
surface tension liquid-gas (294.1 K): 29.4 ± 0.4 mN/m
viscosity (303.15 K): 1.41 ± 0.01 mPa·s
speed of sound (303.15 K): 1337.3 ± 1.1 m/s
mass density (303.15 K): 850.09 ± 0.7 kg/m3
viscosity (313.15 K): 1.2 ± 0.01 mPa·s
speed of sound (313.15 K): 1300.5 ± 1.1 m/s
mass density (313.15 K): 842.49 ± 0.7 kg/m3
viscosity (323.15 K): 1.03 ± 0.01 mPa·s
speed of sound (323.15 K): 1264.3 ± 1.1 m/s
mass density (323.15 K): 834.87 ± 0.7 kg/m3
viscosity (333.15 K): 0.901 ± 0.012 mPa·s
speed of sound (333.15 K): 1228.8 ± 1.1 m/s
mass density (333.15 K): 827.48 ± 0.7 kg/m3
viscosity (343.15 K): 0.794 ± 0.012 mPa·s
mass density (343.15 K): 819.5 ± 2 kg/m3

CCCCc1ccccc1 [butylbenzene]
viscosity (293.15 K): 1.06 ± 0.01 mPa·s
speed of sound (293.15 K): 1352.8 ± 1 m/s
mass density (293.15 K): 860.6 ± 0.19 kg/m3
surface tension liquid-gas (294.4 K): 28.8 ± 0.3 mN/m
viscosity (303.15 K): 0.915 ± 0.012 mPa·s
speed of sound (303.15 K): 1314 ± 1 m/s
mass density (303.15 K): 852.56 ± 0.19 kg/m3
viscosity (313.15 K): 0.801 ± 0.012 mPa·s
speed of sound (313.15 K): 1275.8 ± 1 m/s
mass density (313.15 K): 844.5 ± 0.19 kg/m3
viscosity (323.15 K): 0.708 ± 0.011 mPa·s
speed of sound (323.15 K): 1238.2 ± 1 m/s
mass density (323.15 K): 836.41 ± 0.19 kg/m3
viscosity (333.15 K): 0.631 ± 0.011 mPa·s
speed of sound (333.15 K): 1201.4 ± 1 m/s
mass density (333.15 K): 828.29 ± 0.19 kg/m3
viscosity (343.15 K): 0.566 ± 0.011 mPa·s
mass density (343.15 K): 820.3 ± 0.5 kg/m3

CCCCC1CCCCC1 [butylcyclohexane]
viscosity (293.15 K): 1.31 ± 0.01 mPa·s
speed of sound (293.15 K): 1327.7 ± 1 m/s
mass density (293.15 K): 799.33 ± 0.2 kg/m3
surface tension liquid-gas (294.5 K): 26.6 ± 0.3 mN/m
viscosity (303.15 K): 1.11 ± 0.01 mPa·s
speed of sound (303.15 K): 1287.9 ± 1 m/s
mass density (303.15 K): 791.82 ± 0.2 kg/m3
viscosity (313.15 K): 0.961 ± 0.012 mPa·s
speed of sound (313.15 K): 1248.7 ± 1 m/s
mass density (313.15 K): 784.28 ± 0.2 kg/m3
viscosity (323.15 K): 0.837 ± 0.012 mPa·s
speed of sound (323.15 K): 1210.3 ± 1 m/s
mass density (323.15 K): 776.7 ± 0.2 kg/m3
viscosity (333.15 K): 0.736 ± 0.011 mPa·s
speed of sound (333.15 K): 1172.6 ± 1 m/s
mass density (333.15 K): 769.09 ± 0.2 kg/m3
viscosity (343.15 K): 0.653 ± 0.011 mPa·s
mass density (343.15 K): 761.4 ± 0.5 kg/m3

CCCCCCCCCCCCCCCC [hexadecane]
viscosity (293.15 K): 3.43 ± 0.02 mPa·s
speed of sound (293.15 K): 1356.4 ± 1 m/s
mass density (293.15 K): 773.42 ± 0.32 kg/m3
surface tension liquid-gas (294 K): 27.2 ± 0.3 mN/m
viscosity (303.15 K): 2.72 ± 0.02 mPa·s
speed of sound (303.15 K): 1319 ± 1 m/s
mass density (303.15 K): 766.47 ± 0.32 kg/m3
viscosity (313.15 K): 2.2 ± 0.02 mPa·s
speed of sound (313.15 K): 1282.6 ± 1 m/s
mass density (313.15 K): 759.55 ± 0.32 kg/m3
viscosity (323.15 K): 1.82 ± 0.01 mPa·s
speed of sound (323.15 K): 1246.9 ± 1 m/s
mass density (323.15 K): 752.63 ± 0.32 kg/m3
viscosity (333.15 K): 1.54 ± 0.01 mPa·s
speed of sound (333.15 K): 1212 ± 1 m/s
mass density (333.15 K): 745.71 ± 0.32 kg/m3
viscosity (343.15 K): 1.31 ± 0.01 mPa·s
mass density (343.15 K): 738.8 ± 0.9 kg/m3
